# Activity calls are given as the source filed them. The rule behind the calls is not given here.
# Key:
# [1] = target: T1, High affinity choline transporter 1 (Homo sapiens, UniProt Q9GZV3); assay: CHT inhibitors, dose response, cell-based, 5-point CRC, membrane potential dye (AID 504840); assay type: functional
# T1 sequence (Q9GZV3 whole entry): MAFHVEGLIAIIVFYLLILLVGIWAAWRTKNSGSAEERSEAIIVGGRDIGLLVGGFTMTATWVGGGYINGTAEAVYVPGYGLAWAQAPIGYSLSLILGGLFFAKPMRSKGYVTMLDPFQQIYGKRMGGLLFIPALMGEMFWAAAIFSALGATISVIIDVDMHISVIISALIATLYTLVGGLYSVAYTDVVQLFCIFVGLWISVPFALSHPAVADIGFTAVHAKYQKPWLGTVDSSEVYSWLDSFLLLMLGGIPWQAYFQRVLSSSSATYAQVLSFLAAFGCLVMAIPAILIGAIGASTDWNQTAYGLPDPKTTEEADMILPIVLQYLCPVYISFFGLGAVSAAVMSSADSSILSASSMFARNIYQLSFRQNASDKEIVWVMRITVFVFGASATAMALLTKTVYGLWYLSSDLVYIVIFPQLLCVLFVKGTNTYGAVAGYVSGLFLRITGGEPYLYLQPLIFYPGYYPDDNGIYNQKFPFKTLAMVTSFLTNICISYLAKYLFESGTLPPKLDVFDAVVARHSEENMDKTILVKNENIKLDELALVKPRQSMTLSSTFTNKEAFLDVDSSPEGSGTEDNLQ
# [2] = target: T1, High affinity choline transporter 1; assay: CHT inhibitors, dose response, cell-based, 10-point CRC, membrane potential dye (AID 588401); assay type: functional;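 note: membrane potential dye fluorescence of choline-evoked depolarization via CHT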
compound,measurement,setting,value
CCOc1ccccc1Nc1ccc2nonc2c1[N+](=O)[O-],IC50,[1],7.88 µM (active)
same,IC50,[2],4.28 µM (active)
